Results from paper PMC6199744, “Development of Chemical Proteomics for the Folateome and Analysis of the Kinetoplastid Folateome” (ACS Infectious Diseases, 2018).
Read-outs that look alike come from different tables or passages of the source.

Key:
Format in all cases: binding
[1] = biological target: T1, HeLa cell extract proteins (Homo sapiens, UniProt Q93008)
T1 construct: endogenous in cells; host or cells: HeLa cell extract

[2] = biological target: T2, HeLa cell extract proteins (Homo sapiens, UniProt P53597)
T2 construct: endogenous in cells; host or cells: HeLa cell extract
T2 sequence (P53597 41-346): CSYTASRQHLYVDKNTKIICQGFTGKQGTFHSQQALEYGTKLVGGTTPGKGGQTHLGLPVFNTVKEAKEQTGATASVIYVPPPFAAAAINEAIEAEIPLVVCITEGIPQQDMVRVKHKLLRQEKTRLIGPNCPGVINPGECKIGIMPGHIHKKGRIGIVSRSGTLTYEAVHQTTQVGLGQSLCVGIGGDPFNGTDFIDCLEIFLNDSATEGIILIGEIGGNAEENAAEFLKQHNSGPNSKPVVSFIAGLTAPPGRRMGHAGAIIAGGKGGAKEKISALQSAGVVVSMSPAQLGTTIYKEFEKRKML

[3] = biological target: T3, HeLa cell extract proteins (Homo sapiens, UniProt O43819)
T3 construct: endogenous in cells; host or cells: HeLa cell extract
T3 sequence (O43819 42-266): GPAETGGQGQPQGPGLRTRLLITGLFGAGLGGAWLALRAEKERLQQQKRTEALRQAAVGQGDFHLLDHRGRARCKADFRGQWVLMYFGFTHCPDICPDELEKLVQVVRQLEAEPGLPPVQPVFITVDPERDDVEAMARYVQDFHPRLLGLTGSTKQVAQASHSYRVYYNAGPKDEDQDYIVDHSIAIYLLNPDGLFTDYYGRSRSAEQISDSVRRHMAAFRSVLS

[4] = biological target: T4, HeLa cell extract proteins (Homo sapiens, UniProt O60684); conditions: protein KPNA6; HeLa
T4 construct: endogenous in cells; host or cells: HeLa cell extract

[5] = biological target: T5, HeLa cell extract proteins (Homo sapiens, UniProt Q00653); conditions: protein NFKB2; HeLa
T5 construct: endogenous in cells; host or cells: HeLa cell extract
T5 sequence (Q00653 1-900): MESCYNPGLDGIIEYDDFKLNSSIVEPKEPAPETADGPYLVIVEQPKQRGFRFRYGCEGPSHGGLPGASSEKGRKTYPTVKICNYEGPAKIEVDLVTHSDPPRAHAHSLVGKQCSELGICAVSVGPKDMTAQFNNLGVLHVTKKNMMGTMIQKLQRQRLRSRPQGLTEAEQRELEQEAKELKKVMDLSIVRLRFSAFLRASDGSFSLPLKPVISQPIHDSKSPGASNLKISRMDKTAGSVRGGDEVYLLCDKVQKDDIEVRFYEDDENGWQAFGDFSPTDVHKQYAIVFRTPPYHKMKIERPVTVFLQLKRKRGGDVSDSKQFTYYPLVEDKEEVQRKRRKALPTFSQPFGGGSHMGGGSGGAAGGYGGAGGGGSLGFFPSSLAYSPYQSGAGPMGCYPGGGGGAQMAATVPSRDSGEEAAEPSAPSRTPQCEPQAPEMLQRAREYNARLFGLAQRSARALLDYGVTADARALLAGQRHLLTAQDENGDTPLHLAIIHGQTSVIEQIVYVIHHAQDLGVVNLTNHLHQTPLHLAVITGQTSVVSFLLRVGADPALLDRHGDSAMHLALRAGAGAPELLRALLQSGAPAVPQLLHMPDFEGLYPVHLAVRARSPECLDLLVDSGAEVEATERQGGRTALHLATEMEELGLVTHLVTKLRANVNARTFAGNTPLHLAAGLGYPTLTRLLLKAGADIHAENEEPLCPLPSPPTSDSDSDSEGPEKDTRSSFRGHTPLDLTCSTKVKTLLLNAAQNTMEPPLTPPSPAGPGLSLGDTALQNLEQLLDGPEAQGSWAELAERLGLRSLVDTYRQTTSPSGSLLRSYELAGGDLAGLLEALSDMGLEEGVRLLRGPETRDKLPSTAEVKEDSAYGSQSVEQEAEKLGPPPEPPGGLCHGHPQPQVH

[6] = biological target: T6, HeLa cell extract proteins (Homo sapiens, UniProt P43358); conditions: protein MAGEA4; HeLa
T6 construct: endogenous in cells; host or cells: HeLa cell extract
T6 sequence (P43358 1-317): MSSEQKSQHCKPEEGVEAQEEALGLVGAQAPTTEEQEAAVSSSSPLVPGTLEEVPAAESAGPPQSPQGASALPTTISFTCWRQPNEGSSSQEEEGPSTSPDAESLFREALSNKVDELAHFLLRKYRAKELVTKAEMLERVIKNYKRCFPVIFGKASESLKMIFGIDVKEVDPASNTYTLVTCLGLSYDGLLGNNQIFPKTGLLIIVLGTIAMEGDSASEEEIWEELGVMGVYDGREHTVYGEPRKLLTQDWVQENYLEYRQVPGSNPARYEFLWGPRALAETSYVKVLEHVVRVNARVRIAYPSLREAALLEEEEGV

[7] = biological target: T7, HeLa cell extract proteins (Homo sapiens, UniProt Q15233); conditions: protein NONO; HeLa
T7 construct: endogenous in cells; host or cells: HeLa cell extract
T7 sequence (Q15233 1-471): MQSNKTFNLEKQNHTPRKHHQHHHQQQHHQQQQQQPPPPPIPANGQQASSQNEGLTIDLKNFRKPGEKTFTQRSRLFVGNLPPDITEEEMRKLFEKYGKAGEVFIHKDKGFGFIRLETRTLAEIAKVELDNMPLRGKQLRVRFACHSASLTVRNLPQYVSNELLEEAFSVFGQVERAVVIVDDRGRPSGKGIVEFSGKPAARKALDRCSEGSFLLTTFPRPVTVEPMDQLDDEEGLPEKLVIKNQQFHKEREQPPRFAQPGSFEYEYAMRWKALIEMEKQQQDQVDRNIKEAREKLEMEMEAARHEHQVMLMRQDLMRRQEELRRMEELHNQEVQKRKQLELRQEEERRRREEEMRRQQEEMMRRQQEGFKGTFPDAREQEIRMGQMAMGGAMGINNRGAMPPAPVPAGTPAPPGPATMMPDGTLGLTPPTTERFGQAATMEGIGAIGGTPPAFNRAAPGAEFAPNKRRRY

[8] = biological target: T8, HeLa cell extract proteins (Homo sapiens, UniProt Q9Y316); conditions: HeLa; protein MEMO1
T8 construct: endogenous in cells; host or cells: HeLa cell extract
T8 sequence (Q9Y316 1-297): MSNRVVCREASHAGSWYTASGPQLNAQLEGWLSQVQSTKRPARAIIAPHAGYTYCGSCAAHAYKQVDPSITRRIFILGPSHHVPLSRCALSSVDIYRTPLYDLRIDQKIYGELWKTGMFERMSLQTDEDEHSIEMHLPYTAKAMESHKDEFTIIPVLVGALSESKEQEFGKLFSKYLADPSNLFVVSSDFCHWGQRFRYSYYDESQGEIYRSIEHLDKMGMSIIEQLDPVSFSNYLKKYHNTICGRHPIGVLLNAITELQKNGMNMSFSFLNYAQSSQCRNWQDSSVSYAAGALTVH

T1 sequence (Q93008 whole entry): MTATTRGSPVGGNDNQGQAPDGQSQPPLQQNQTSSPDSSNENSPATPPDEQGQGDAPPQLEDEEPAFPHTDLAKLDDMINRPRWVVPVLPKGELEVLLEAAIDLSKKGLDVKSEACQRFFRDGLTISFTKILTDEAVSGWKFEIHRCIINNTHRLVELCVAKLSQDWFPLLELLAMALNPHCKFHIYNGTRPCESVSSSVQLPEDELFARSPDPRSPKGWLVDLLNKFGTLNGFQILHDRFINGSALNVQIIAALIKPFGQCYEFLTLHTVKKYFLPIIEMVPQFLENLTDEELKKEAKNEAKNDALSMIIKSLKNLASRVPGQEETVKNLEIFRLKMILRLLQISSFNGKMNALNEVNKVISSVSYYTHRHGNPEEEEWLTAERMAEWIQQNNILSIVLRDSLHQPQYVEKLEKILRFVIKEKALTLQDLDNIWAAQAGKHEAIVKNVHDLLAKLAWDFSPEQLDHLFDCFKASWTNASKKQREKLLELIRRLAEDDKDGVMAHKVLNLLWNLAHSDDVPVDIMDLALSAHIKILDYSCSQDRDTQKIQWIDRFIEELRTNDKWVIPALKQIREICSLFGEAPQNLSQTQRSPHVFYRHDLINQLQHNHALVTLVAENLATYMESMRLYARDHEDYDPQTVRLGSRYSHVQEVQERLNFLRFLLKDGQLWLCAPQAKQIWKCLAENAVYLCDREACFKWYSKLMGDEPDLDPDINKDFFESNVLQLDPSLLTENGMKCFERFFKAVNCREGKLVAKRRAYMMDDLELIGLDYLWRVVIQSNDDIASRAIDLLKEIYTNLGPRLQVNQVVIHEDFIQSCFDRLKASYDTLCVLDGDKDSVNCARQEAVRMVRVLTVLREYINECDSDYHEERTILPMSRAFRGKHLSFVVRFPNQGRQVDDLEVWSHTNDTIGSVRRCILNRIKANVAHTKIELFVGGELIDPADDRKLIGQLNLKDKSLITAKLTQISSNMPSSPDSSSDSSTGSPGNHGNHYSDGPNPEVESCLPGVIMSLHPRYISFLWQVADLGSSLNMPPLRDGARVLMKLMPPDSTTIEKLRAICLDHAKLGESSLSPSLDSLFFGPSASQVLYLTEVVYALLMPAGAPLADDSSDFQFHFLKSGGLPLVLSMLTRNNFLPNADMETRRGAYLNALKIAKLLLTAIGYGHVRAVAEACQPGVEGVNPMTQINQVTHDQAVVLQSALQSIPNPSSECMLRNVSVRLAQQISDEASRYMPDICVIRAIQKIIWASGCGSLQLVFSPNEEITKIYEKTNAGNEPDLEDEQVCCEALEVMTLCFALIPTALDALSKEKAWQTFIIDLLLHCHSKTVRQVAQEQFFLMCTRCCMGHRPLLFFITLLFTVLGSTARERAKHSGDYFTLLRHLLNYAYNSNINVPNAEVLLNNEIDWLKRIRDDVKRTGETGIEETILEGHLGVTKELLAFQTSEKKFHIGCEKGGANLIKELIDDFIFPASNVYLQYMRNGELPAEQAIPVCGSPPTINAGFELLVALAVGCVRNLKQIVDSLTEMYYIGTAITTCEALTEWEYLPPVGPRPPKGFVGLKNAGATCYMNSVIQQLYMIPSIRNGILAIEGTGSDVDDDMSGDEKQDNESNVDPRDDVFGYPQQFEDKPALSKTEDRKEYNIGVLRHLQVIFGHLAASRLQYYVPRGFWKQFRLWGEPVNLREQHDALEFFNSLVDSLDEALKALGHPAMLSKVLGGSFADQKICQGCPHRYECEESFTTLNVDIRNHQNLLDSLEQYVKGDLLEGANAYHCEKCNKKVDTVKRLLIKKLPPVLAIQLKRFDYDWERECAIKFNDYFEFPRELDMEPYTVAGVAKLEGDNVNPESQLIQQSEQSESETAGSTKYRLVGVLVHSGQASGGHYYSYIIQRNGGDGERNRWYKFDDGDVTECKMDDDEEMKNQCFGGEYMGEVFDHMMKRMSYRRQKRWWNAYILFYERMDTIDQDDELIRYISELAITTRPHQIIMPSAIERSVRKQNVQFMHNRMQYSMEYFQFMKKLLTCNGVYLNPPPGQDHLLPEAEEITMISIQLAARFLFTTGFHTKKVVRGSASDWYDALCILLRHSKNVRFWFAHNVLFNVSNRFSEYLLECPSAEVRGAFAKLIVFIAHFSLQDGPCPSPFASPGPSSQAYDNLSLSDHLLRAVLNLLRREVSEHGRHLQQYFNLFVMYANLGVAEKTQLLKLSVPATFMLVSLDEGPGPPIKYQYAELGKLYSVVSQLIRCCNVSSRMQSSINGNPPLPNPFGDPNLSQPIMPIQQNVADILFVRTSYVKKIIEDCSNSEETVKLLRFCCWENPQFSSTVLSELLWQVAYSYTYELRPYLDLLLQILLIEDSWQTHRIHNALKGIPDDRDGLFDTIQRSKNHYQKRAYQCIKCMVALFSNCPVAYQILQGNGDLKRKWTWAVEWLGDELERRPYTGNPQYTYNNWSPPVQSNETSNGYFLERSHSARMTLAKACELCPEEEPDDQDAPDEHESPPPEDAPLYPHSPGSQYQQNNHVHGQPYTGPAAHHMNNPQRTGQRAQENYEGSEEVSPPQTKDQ

Compound	fold changes relative to vehicle control ([1]; HeLa, captured protein USP9X)	fold changes relative to vehicle control ([2]; protein SUCLG1, HeLa)	fold changes relative to vehicle control ([3]; HeLa, protein SCO2)	fold changes relative to vehicle control [4]	fold changes relative to vehicle control [5]	fold changes relative to vehicle control [6]	fold changes relative to vehicle control [7]	fold changes relative to vehicle control [8]	fold changes relative to vehicle control [1]	fold changes relative to vehicle control [2]	fold changes relative to vehicle control [3]
Nc1nc2c(c(=O)[nH]1)N(C=O)C(CNc1ccc(C(=O)N[C@@H](CCC(=O)O)C(=O)O)cc1)CN2 (stereo partly drawn) [LEU, leucovorin]	1.13	0.95	0.95	–	–	–	–	–	–	–	–
NCCCNc1ccc(C(=O)NC(CCC(=O)O)C(=O)O)cc1 (stereo not drawn) [compound 7]	1.26	0.81	1.03	–	–	–	–	–	–	–	–
CCCCCCOc1cccc(Cc2cnc(N)nc2N)c1 [compound 2]	–	–	–	1.34	1.24	1.19	1.67	0.87	–	–	–
CCCCCCOc1ccc(Cc2cnc(N)nc2N)cc1 [compound 1]	–	–	–	1.16	0.9	0.95	0.97	0.97	–	–	–
Nc1nc2cccc(-c3ccccc3)c2n1Cc1ccc(Cl)c(Cl)c1 [compound 3]	–	–	–	1.15	0.9	0.98	0.92	1	–	–	–
NCCOCCOCC(=O)Nc1nc2ncc(CNc3ccc(C(=O)NC(CCC(=O)O)C(=O)O)cc3)nc2c(=O)[nH]1 (stereo not drawn) [compound 6]	1.31	1.3	1.02	–	–	–	–	–	–	–	–
Nc1nc2[nH]cc(CCc3ccc(C(=O)N[C@@H](CCC(=O)O)C(=O)O)cc3)c2c(=O)[nH]1 [PTX, pemetrexed]	–	–	–	–	–	–	–	–	1.17	1.09	0.95
